# Columns and labels:
# [1] = Propylene polymerization with supported metallocene/MAO/SiO2 catalyst; conditions: supported on SiO2 with MAO (Al/Zr=215); liquid propylene, 60° C., 1 hour
# Method: 35.1 mg (0.047 mmol) of (1) were stirred in 2.1 ml of 30% strength MAO solution in toluene (Al/Zr=215) for 60 minutes at room temperature. 2 g of SiO2 (Grace XPO2107, pretreated at 140° C., 10 mbar, 10 hours) were subsequently added and the mixture was stirred for another 10 minutes. The solvent was removed in an oil pump vacuum.
# A dry 2 l reactor was flushed firstly with nitrogen and subsequently with propylene and charged with 1.5 l of liquid propylene. 2 ml of TEA (20% strength in Varsol) were added thereto and the mixture was stirred for 15 minutes. The catalyst system prepared above (0.886 g) was subsequently resuspended in 20 ml of heptane and then injected into the reactor and rinsed in with 15 ml of heptane. The reaction mixture was heated to the polymerization temperature of 60° C. and polymerization was carried out for 1 hour. The polymerization was stopped by venting the remaining propylene. The polymer was dried in a vacuum drying oven. This gave 470 g of polypropylene powder. […] The catalyst activity was 0.53 kg of PP/g of catalyst x h.
# 27.1 mg (0.047 mmol) of dimethylsilanediylbis(2-methyl-4,5-benzoindenyl)zirconium dichloride were stirred in 2.1 ml of 30% strength MAO solution in toluene (Al/Zr=215) for 60 minutes at room temperature. […]
# [2] = Solubility comparison in toluene at room temperature
Molecule,catalyst activity [1],solubility [2]
"CC1=Cc2c(ccc3ccccc23)[C]12[Si](C)(C)[C]1(C(C)=Cc3c1ccc1ccccc31)[Zr]2([Cl])[O]c1ccc(C(C)(C)C)cc1C(C)(C)C (stereo not shown) [Compound 1, Dimethylsilanediylbis(2-methyl-4,5-benzoindenyl)zirconium Monochloride mono(2,4-di-tert-butylphenoxide)]",0.53 kg of PP/g of catalyst x h,> 13 mM
"CCC(C)(C)c1ccc([O][Zr]2([Cl])[C]3(C(C)=Cc4c3ccc3ccccc43)[Si](C)(C)[C]23C(C)=Cc2c3ccc3ccccc23)c(C(C)(C)CC)c1 (stereo not shown) [Compound 6, Dimethylsilanediylbis(2-methyl-4,5-benzoindenyl)-zirconium Monochloride mono(2,4-di-tert-pentylphenoxide)]",,about 17.7 mmol/l
"CC1=Cc2c(ccc3ccccc23)[C]12[Si](C)(C)[C]1(C(C)=Cc3c1ccc1ccccc31)[Zr]2([Cl])[Cl] (stereo not shown) [dimethylsilanediylbis(2-methyl-4,5-benzoindenyl)zirconium dichloride, reference compound]",0.46 kg of PP/g of catalyst x h,about 0.36 mmol/l
"Cc1cc2ccccc2[c-]1[Si](C)(C)[c-]1c(C)cc2ccccc21.[Cl-].[Cl-].[Zr+4] (stereo not shown) [dimethylsilanediylbis(2-methylindenyl)zirconium dichloride, reference compound]",,about 2.1 mmol/l
"Dimethylsilanediyl-bis(2-methylindenyl)zirconium Monochloride mono(2,4-di-tert-butylphenoxide) [Compound 2]",,> 15 mM

# Reference: patent publication US6900343B1, “Method for the purification of metallocenes” (Basell Polyolefine GmbH, priority 1998, dated 2005)
